# Measured values taken from US6498862B1 (priority 1999, dated 2002).
# Test system: B. cepacia biofilm
# Assay type: cell-based, Burkholderia cepacia
smiles,measurement,value
"O=[O+][O-] [ozone, Ozone]","biocide efficacy (rank order, from cell number/3000 μm^2 and total cell area vs elapsed time)",greatest
